Reference: patent US20150344457A1, “METHODS OF INHIBITING PRMT5” (EPIZYME, INC., priority 2012, published 2015)
pEC50: −log10 of the molar value.

Experiments:
[1] = test system: Z-138 cells; test: Z-138 Proliferation Assay (Cell Titer Glo, 5 days); assay type: cell-based; details: Homo sapiens, Table D-2
Procedure, shortened: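 Exponentially growing Z-138 cells (10,000 cells/ml) in RPMI 1640 with 10% FBS are exposed to nine-point 3-fold dilutions (final top concentration 20 μM, 0.2% DMSO) for 5 days at 37° C. Viability is measured as ATP by CellTiter-Glo luminescence. The 50% inhibitory concentration comes from a 4-parameter fit.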

[2] = test system: Z-138 cells; test: Z-138 Methylation Assay (In Cell Western for symmetric di-methyl arginine and DNA content); assay type: cell-based; details: Homo sapiens, Table D-2, read-out: ICW EC50
Procedure, shortened: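 Symmetric di-methyl arginine signal (800 nm) ratioed to DNA content (700 nm) by In Cell Western after four days of compound treatment of Z-138 suspension cells seeded at 50,000 cells/mL. Percent inhibition set between DMSO and 3 μM reference wells; IC50 curves from triplicates.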

Compound | pEC50 [2] | pEC50 [1]
COC(=O)c1cncc(-c2cccc(OCC(O)CN3CCc4ccccc4C3)c2)c1 (stereo not drawn) [Compound D180] | < 4.70 | < 4.70
CNC(=O)c1cncc(-c2cccc(OCC(O)CN3CCc4ccccc4C3)c2)c1 (stereo not drawn) [Compound D182] | 5.00 to 6.00 | < 4.70
Cn1cnc(C(=O)Nc2cccc(OCC(O)CN3CCc4ccccc4C3)c2)c1 (stereo not drawn) [Compound D183] | 5.00 to 6.00 | < 4.70
O=C(c1cccc(-c2cccc(OCC(O)CN3CCc4ccccc4C3)c2)c1)N1CCCC1 (stereo not drawn) [Compound D185] | 5.00 to 6.00 | 4.40 to 5.00
CNC(=O)c1cccc(-c2cccc(OCC(O)CN3CCc4ccccc4C3)c2)c1 (stereo not drawn) [Compound D186] | 5.00 to 6.00 | < 4.70
Cc1cn(C)c2cc(-c3cccc(OCC(O)CN4CCc5ccccc5C4)c3)ccc12 (stereo not drawn) [Compound D187] | 5.00 to 6.00 | < 4.70
OC(COc1cccc(-c2ccc3ncoc3c2)c1)CN1CCc2ccccc2C1 (stereo not drawn) [Compound D188] | 5.00 to 6.00 | 4.40 to 5.00
OC(COc1cccc(-c2cc(OC(F)(F)F)ccc2Cl)c1)CN1CCc2ccccc2C1 (stereo not drawn) [Compound D200] | 4.40 to 5.00 | < 4.70
CC(C)Oc1ccc(F)c(-c2cccc(OCC(O)CN3CCc4ccccc4C3)c2)c1 (stereo not drawn) [Compound D201] | 5.00 to 6.00 | < 4.70

The next lines start with results.

pEC50 [2] | Compound | pEC50 [1]
6.00 to 7.00 | Cn1ccc2ccc(-c3cccc(OCC(O)CN4CCc5ccccc5C4)c3)nc21 (stereo not drawn) [Compound D176] | < 4.70
6.00 to 7.00 | Cn1cnc2ccc(-c3cccc(OCC(O)CN4CCc5ccccc5C4)c3)nc21 (stereo not drawn) [Compound D189] | 6.00 to 7.00
6.00 to 7.00 | Cn1cnc2cnc(-c3cccc(OCC(O)CN4CCc5ccccc5C4)c3)nc21 (stereo not drawn) [Compound D191] | 5.00 to 6.00
> 7.00 | Cn1cnc2ccc(-c3cncc(NCC(O)CN4CCc5ccccc5C4)c3)cc21 (stereo not drawn) [Compound D199] | 5.00 to 6.00
6.00 to 7.00 | Cn1ncc2ccc(-c3cc(NCC(O)CN4CCc5ccccc5C4)ncn3)cc21 (stereo not drawn) [Compound D205] | < 4.70
6.00 to 7.00 | Cn1cnc2ccc(-c3cc(NCC(O)CN4CCc5ccccc5C4)ncn3)cc21 (stereo not drawn) [Compound D207] | 5.00 to 6.00
